Experimental data published in patent US11053204B2, “Pyrimidinyloxy benzene derivatives as herbicides” (FMC Corporation, priority 2015, dated 2021).

Legend:
Type in all cases: in vivo
kochia (Kochia scoparia) = assay: Test C preemergence, plant response rating
[1] = test system: oat, wild (wild oat Avena fatua); assay: Test C preemergence, plant response rating
[2] = test system: surinam grass (Brachiaria decumbens); assay: Test C preemergence, plant response rating
[3] = test system: oilseed rape (Brassica napus); assay: Test C postemergence, plant response rating; conditions: for Oilseed Rape plant response rating: scale 0 to 100 (0 no effect, 100 complete control)
Procedure, shortened: (§1)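 Greenhouse plants rated visually against untreated controls 13–15 d after treatment, scale 0 = no effect to 100 = complete control. Postemergence sprays went onto potted plants 2–18 cm tall (1–4 leaves); preemergence sprays onto soil freshly sown in loam–sand or silt loam, chemicals formulated in non-phytotoxic solvent with surfactant.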

[4] = test system: galium (catchweed bedstraw, Galium aparine); assay: Test C postemergence, plant response rating; conditions: for Galium plant response rating: scale 0 to 100 (0 no effect, 100 complete control)
Procedure, shortened: as §1

[5] = test system: waterhemp (common waterhemp, Amaranthus rudis); assay: Test C postemergence, plant response rating
Procedure, shortened: as §1

[6] = test system: lambsquarters (Chenopodium album); assay: Test C postemergence, plant response rating; conditions: for Lambsquarters plant response rating: scale 0 to 100 (0 no effect, 100 complete control)
Procedure, shortened: as §1

[7] = test system: foxtail, giant (giant foxtail, Setaria faberii); assay: Test C postemergence, plant response rating; conditions: for Foxtail, Giant plant response rating: scale 0 to 100 (0 no effect, 100 complete control)
Procedure, shortened: as §1

[8] = test system: crabgrass, large (large crabgrass, Digitaria sanguinalis); assay: Test C postemergence, plant response rating; conditions: for Crabgrass, Large plant response rating: scale 0 to 100 (0 no effect, 100 complete control)
Procedure, shortened: as §1

[9] = test system: blackgrass (Alopecurus myosuroides); assay: Test C postemergence, plant response rating; conditions: for Plant response rating, Blackgrass: scale 0 to 100; for Blackgrass plant response rating: scale 0 to 100 (0 no effect, 100 complete control)
Procedure, shortened: as §1

[10] = test system: wheat (winter wheat, Triticum aestivum); assay: Test C postemergence, plant response rating
Procedure, shortened: as §1

corn (Zea mays) = assay: Test C postemergence, plant response rating; conditions: for Corn plant response rating: scale 0 to 100 (0 no effect, 100 complete control)
Procedure, shortened: as §1

[11] = test system: oat, wild (wild oat Avena fatua); assay: Test C postemergence, plant response rating; conditions: for Oat, Wild plant response rating: scale 0 to 100 (0 no effect, 100 complete control)
Procedure, shortened: as §1

[12] = test system: velvetleaf (Abutilon theophrasti); assay: Test C postemergence, plant response rating
Procedure, shortened: as §1

[13] = test system: ragweed (common ragweed, Ambrosia elatior); assay: Test C postemergence, plant response rating; conditions: for Ragweed plant response rating: scale 0 to 100 (0 no effect, 100 complete control)
Procedure, shortened: as §1

[14] = test system: barnyardgrass (Echinochloa crus-galli); assay: Test C postemergence, plant response rating; conditions: for Plant response rating, Barnyardgrass: scale 0 to 100; for Barnyardgrass plant response rating: scale 0 to 100 (0 no effect, 100 complete control)
Procedure, shortened: as §1

[15] = test system: ryegrass, Italian (Italian ryegrass, Lolium multiflorum); assay: Test C postemergence, plant response rating; conditions: for Ryegrass, Italian plant response rating: scale 0 to 100 (0 no effect, 100 complete control)
Procedure, shortened: as §1

[16] = test system: nutsedge, yellow (yellow nutsedge, Cyperus esculentus); assay: Test C postemergence, plant response rating; conditions: for Nutsedge, Yellow plant response rating: scale 0 to 100 (0 no effect, 100 complete control)
Procedure, shortened: as §1

soybean (Glycine max) = assay: Test C postemergence, plant response rating; conditions: for Soybean plant response rating: scale 0 to 100 (0 no effect, 100 complete control)
Procedure, shortened: as §1

[17] = test system: galium (catchweed bedstraw, Galium aparine); assay: Test C preemergence, plant response rating
[18] = 125 g ai/ha, scale 0 to 100 (0 no effect, 100 complete control)

SMILES: O=C(CCCC(F)(F)F)c1c(Cl)cccc1Oc1ncc(Cl)cn1 [Compound 143]
- Plant response rating, Kochia (kochia (Kochia scoparia); 31 g ai/ha, scale 0 to 100): 80
- Plant response rating, Kochia (kochia (Kochia scoparia); 62 g ai/ha, scale 0 to 100): 90
- Plant response rating, Kochia (kochia (Kochia scoparia); 125 g ai/ha, scale of 0 to 100): 90
- Plant response rating, Oat, Wild ([1]; 31 g ai/ha, scale 0 to 100): 0
- Plant response rating, Oat, Wild ([1]; 62 g ai/ha, scale 0 to 100): 5
- Plant response rating, Oat, Wild ([1]; 125 g ai/ha, scale of 0 to 100): 5
- Plant response rating, Surinam Grass ([2]; 31 g ai/ha, scale 0 to 100): 10
- Plant response rating, Surinam Grass ([2]; 62 g ai/ha, scale 0 to 100): 35
- Plant response rating, Surinam Grass ([2]; 125 g ai/ha, scale of 0 to 100): 50
- Plant response rating, Oilseed Rape ([3]; 16 g ai/ha, scale of 0 to 100): 85
- Plant response rating, Oilseed Rape ([3]; 31 g ai/ha, scale 0 to 100): 80
- Oilseed Rape plant response rating ([3]; 62 g ai/ha): 95
- Oilseed Rape plant response rating ([3]; 125 g ai/ha): 100
- Plant response rating, Galium ([4]; 16 g ai/ha, scale of 0 to 100): 75
- Plant response rating, Galium ([4]; 31 g ai/ha, scale 0 to 100): 85
- Galium plant response rating ([4]; 62 g ai/ha): 80
- Galium plant response rating ([4]; 125 g ai/ha): 95
- Plant response rating, Waterhemp ([5]; 16 g ai/ha, scale of 0 to 100): 75
- Plant response rating, Waterhemp ([5]; 31 g ai/ha, scale 0 to 100): 80
- Waterhemp plant response rating [5, 18]: 90
- Plant response rating, Lambsquarters ([6]; 16 g ai/ha, scale of 0 to 100): 75
- Plant response rating, Lambsquarters ([6]; 31 g ai/ha, scale 0 to 100): 90
- Lambsquarters plant response rating ([6]; 62 g ai/ha): 90
- Lambsquarters plant response rating ([6]; 125 g ai/ha): 95
- Plant response rating, Foxtail, Giant ([7]; 16 g ai/ha, scale of 0 to 100): 20
- Plant response rating, Foxtail, Giant ([7]; 31 g ai/ha, scale 0 to 100): 10
- Foxtail, Giant plant response rating ([7]; 62 g ai/ha): 10
- Foxtail, Giant plant response rating ([7]; 125 g ai/ha): 25
- Plant response rating, Crabgrass, Large ([8]; 16 g ai/ha, scale of 0 to 100): 5
- Plant response rating, Crabgrass, Large ([8]; 31 g ai/ha, scale 0 to 100): 5
- Crabgrass, Large plant response rating ([8]; 62 g ai/ha): 15
- Crabgrass, Large plant response rating ([8]; 125 g ai/ha): 30
- Plant response rating, Blackgrass ([9]; 16 g ai/ha): 10
- Plant response rating, Blackgrass ([9]; 31 g ai/ha): 15
- Blackgrass plant response rating ([9]; 62 g ai/ha): 15
- Blackgrass plant response rating ([9]; 125 g ai/ha): 40
- Plant response rating, Wheat ([10]; 16 g ai/ha, scale of 0 to 100): 5
- Plant response rating, Wheat ([10]; 31 g ai/ha, scale 0 to 100): 10
- Wheat plant response rating [10, 18]: 30
- Plant response rating, Corn (corn (Zea mays); 16 g ai/ha, scale of 0 to 100): 15
- Plant response rating, Corn (corn (Zea mays); 31 g ai/ha, scale 0 to 100): 20
- Corn plant response rating (corn (Zea mays); 62 g ai/ha): 20
- Corn plant response rating (corn (Zea mays); 125 g ai/ha): 30
- Plant response rating, Oat, Wild ([11]; 16 g ai/ha, scale of 0 to 100): 10
- Plant response rating, Oat, Wild ([11]; 31 g ai/ha, scale 0 to 100): 10
- Oat, Wild plant response rating ([11]; 62 g ai/ha): 10
- Oat, Wild plant response rating ([11]; 125 g ai/ha): 20
- Plant response rating, Velvetleaf ([12]; 16 g ai/ha, scale of 0 to 100): 35
- Plant response rating, Velvetleaf ([12]; 31 g ai/ha, scale 0 to 100): 55
- Velvetleaf plant response rating [12, 18]: 70
- Plant response rating, Ragweed ([13]; 16 g ai/ha, scale of 0 to 100): 20
- Plant response rating, Ragweed ([13]; 31 g ai/ha, scale 0 to 100): 50
- Ragweed plant response rating ([13]; 62 g ai/ha): 55
- Ragweed plant response rating ([13]; 125 g ai/ha): 55
- Plant response rating, Barnyardgrass ([14]; 16 g ai/ha): 5
- Plant response rating, Barnyardgrass ([14]; 31 g ai/ha): 10
- Barnyardgrass plant response rating ([14]; 62 g ai/ha): 10
- Barnyardgrass plant response rating ([14]; 125 g ai/ha): 20
- Plant response rating, Ryegrass, Italian ([15]; 16 g ai/ha, scale of 0 to 100): 5
- Plant response rating, Ryegrass, Italian ([15]; 31 g ai/ha, scale 0 to 100): 10
- Ryegrass, Italian plant response rating ([15]; 62 g ai/ha): 10
- Ryegrass, Italian plant response rating ([15]; 125 g ai/ha): 20
- Plant response rating, Nutsedge, Yellow ([16]; 16 g ai/ha, scale of 0 to 100): 0
- Plant response rating, Nutsedge, Yellow ([16]; 31 g ai/ha, scale 0 to 100): 5
- Nutsedge, Yellow plant response rating ([16]; 62 g ai/ha): 5
- Nutsedge, Yellow plant response rating ([16]; 125 g ai/ha): 25
- Plant response rating, Soybean (soybean (Glycine max); 16 g ai/ha, scale of 0 to 100): 30
- Plant response rating, Soybean (soybean (Glycine max); 31 g ai/ha, scale 0 to 100): 40
- Soybean plant response rating (soybean (Glycine max); 62 g ai/ha): 55
- Soybean plant response rating (soybean (Glycine max); 125 g ai/ha): 65
- Plant response rating, Galium ([17]; 31 g ai/ha, scale 0 to 100): 30
- Plant response rating, Galium ([17]; 62 g ai/ha, scale 0 to 100): 80
- Plant response rating, Galium ([17]; 125 g ai/ha, scale of 0 to 100): 80
